In patent publication US20250340574A1, “MODULATORS OF CYSTIC FIBROSIS TRANSMEMBRANE CONDUCTANCE REGULATOR” (Vertex Pharmaceuticals Incorporated, priority 2022, published 2025) one finds EC50 and Emax data, which are given here for 20 molecules.

Where two headings read alike, the source gives them in different places.

This experiment has as its target T1, CFTR (F508del/MF-HBE cells) (Homo sapiens, UniProt P13569, DEL508-508).
T1 construct: human bronchial epithelial (HBE) cells derived from CF subjects heterozygous for F508del and a minimal function CFTR mutation (F508del/MF-HBE); endogenous in cells; host or cells: Primary human bronchial epithelial cells from CF subjects (F508del/MF genotype), differentiated at an air-liquid interface
Briefly: Ussing chamber assay of CFTR-mediated short-circuit currents, Assay C (0.026 μM to 25 μM, 6 concentrations). Type of experiment: cell-based. Conditions: with 33 nM potentiator and 18 μM Tezacaftor, 20% human serum; for Emax: read-out: C Max activity (%). As to the method:
Ussing chamber experiments were performed using human bronchial epithelial (HBE) cells derived from CF subjects heterozygous for F508del and a minimal function CFTR mutation (F508del/MF-HBE) and cultured as previously described (Neuberger T, Burton B, Clark H, Van Goor F Methods Mol Biol 2011:741:39-54). After four days the apical media was removed, and the cells were grown at an air liquid interface for >14 days prior to use.
To isolate the CFTR-mediated short-circuit (ISC) current, F508del/MF-HBE grown on Costar® Snapwell™ cell culture inserts were mounted in an Ussing chamber and the transepithelial ISC was measured under voltage-clamp recording conditions (Vhold=0 mV) at 37° C. The basolateral solution contained (in mM) 145 NaCl, 0.83 K2HPO4, 3.3 KH2PO4, 1.2 MgCl2, 1.2 CaCl2, 10 Glucose, 10 HEPES (pH adjusted to 7.4 with NaOH) and the apical solution contained (in mM) 145 NaGluconate, 1.2 MgCl2, 1.2 CaCl2, 10 glucose, 10 HEPES (pH adjusted to 7.4 with NaOH) and 30 μM amiloride to block the epithelial sodium channel. Forskolin (20 μM) was added to the apical surface to activate CFTR, followed by apical addition of a CFTR inhibitor cocktail consisting of BPO, GlyH-101, and CFTR inhibitor 172 (each at 20 μM final assay concentration) to specifically isolate CFTR currents. The CFTR-mediated ISC (μA/cm^2) for each condition was determined from the peak forskolin response to the steady-state current following inhibition.
The activity of the CFTR corrector compounds on the CFTR-mediated ISC was determined in Ussing chamber studies as described above. The F508del/MF-HBE cell cultures were either incubated with the corrector compounds at a range of concentrations in combination with 33 nM (6R,12R)-17-amino-12-methyl-6,15-bis(trifluoromethyl)-13,19-dioxa-3,4,18-triazatricyclo[12.3.1.12,5]nonadeca-1(18),2,4,14,16-pentaen-6-ol and 18 μM Tezacaftor or were incubated with the corrector compounds at a single fixed concentration of 1 μM in combination with 44 nM (6R,12R)-17-amino-12-methyl-6,15-bis(trifluoromethyl)-13,19-dioxa-3,4,18-triazatricyclo[12.3.1.12,5]nonadeca-1(18),2,4,14,16-pentaen-6-ol and 18 μM Tezacaftor for 18-24 hours at 37° C. and in the presence of 20% human serum. The concentration of corrector compounds with 44 nM or 33 nM (6R,12R)-17-amino-12-methyl-6,15-bis(trifluoromethyl)-13,19-dioxa-3,4,18-triazatricyclo[12.3.1.12,5]nonadeca-1(18),2,4,14,16-pentaen-6-ol and 18 μM Tezacaftor during the 18-24 hours incubations was kept constant throughout the Ussing chamber measurement of the CFTR-mediated ISC to ensure compounds were present throughout the entire experiment. The efficacy and potency of the putative F508del correctors was compared to that of the known Vertex corrector, (14S)-8-[3-(2-{Dispiro[2.0.2.1]heptan-7-yl}ethoxy)-1H-pyrazol-1-yl]-12,12-dimethyl-2λ^6-thia-3,9,11,18,23-pentaazatetracyclo[17.3.1.111,14.05,10]tetracosa-1(22),5,7,9,19(23),20-hexaene-2,2,4-trione, in combination with 18 μM Tezacaftor and 1 μM Ivacaftor.
• Assay A: 0.1 μM to 25 μM, 6 concentrations • Assay B: 0.00001 μM to 25 μM, 12 concentrations • Assay C: 0.026 μM to 25 μM, 6 concentrations • Assay D: Activity at single concentration of 1 μM

T1 sequence (P13569 with tags, fused parts or gaps DEL508-508): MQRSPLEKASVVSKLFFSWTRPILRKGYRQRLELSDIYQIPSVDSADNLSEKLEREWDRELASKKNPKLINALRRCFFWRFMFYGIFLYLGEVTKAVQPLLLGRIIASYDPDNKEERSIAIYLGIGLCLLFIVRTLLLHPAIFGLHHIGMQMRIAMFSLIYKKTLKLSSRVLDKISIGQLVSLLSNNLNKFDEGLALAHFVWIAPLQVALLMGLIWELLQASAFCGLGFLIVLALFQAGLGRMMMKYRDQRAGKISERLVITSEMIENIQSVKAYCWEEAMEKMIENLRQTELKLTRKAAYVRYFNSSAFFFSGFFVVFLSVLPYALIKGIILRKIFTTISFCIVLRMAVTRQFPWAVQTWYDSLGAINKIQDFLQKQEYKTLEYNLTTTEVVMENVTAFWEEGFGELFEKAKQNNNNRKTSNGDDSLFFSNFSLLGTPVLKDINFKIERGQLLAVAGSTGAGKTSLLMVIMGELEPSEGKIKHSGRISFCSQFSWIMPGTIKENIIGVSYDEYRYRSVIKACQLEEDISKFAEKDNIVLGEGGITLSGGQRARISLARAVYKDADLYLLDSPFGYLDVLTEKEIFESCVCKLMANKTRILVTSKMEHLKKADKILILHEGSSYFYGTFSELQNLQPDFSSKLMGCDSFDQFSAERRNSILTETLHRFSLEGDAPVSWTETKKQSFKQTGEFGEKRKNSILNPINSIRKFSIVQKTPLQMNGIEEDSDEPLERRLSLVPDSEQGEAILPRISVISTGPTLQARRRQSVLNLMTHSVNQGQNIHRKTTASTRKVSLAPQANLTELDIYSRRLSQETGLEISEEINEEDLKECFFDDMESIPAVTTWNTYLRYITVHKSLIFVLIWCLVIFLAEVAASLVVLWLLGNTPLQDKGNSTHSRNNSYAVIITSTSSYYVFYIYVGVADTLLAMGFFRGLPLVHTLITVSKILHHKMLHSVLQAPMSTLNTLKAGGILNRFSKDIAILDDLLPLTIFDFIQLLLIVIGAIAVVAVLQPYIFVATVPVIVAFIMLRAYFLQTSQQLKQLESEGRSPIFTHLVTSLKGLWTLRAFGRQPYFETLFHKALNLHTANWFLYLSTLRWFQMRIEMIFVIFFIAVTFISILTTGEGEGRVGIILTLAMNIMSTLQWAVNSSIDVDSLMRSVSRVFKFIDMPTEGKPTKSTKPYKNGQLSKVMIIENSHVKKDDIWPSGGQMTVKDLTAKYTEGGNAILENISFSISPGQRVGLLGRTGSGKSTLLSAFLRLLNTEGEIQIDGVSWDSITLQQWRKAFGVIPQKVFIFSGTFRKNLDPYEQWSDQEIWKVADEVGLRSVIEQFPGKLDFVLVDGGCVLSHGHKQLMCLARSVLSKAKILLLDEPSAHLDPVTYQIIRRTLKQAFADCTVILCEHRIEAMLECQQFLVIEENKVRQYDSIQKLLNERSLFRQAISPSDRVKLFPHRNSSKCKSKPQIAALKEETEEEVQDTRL

For `Cc1cccc(CC(C)C)c1-c1nc2nc(c1C)OC[C@@H](COC(F)(F)F)N(Cc1cnc3cc(C(C)(C)C)n(C)c3n1)C(=O)c1cccc(c1)S(=O)(=O)N2` (atropisomer, axis not shown; (P)) [IV-70, (6P,11S)-12-({6-tert-butyl-5-methyl-5H-pyrrolo[2,3-b]pyrazin-3-yl}methyl)-7-methyl-6-[2-methyl-6-(2-methylpropyl)phenyl]-11-[(trifluoromethoxy)methyl]-9-oxa-2λ^6-thia-3,5,12,19-tetraazatricyclo[12.3.1.1∧{4,8}]nonadeca-1(17),4,6,8(19),14(18),15-hexaene-2,2,13-trione], the EC50 was 1 to 3 µM and the Emax is more than 60%.
As to `Cc1cccc(C)c1-c1nc2nc(c1C)OC[C@@H](CC(C)(C)C)N(Cc1ncc3oc(C(C)(C)C)cc3n1)C(=O)c1cccc(c1)S(=O)(=O)N2` [Compound I-259], the EC50 was less than 1 µM. Further, the Emax (18-24 hours) is more than 60%.
`COc1c2nc(nc1-c1c(C)cccc1C)NS(=O)(=O)c1cccc(c1)C(=O)N(Cc1cnc3cc(C4(C(F)(F)F)CC4)n(C)c3n1)[C@H](COC(C)C)CO2` [IV-104]: the EC50 lay in the range of 1 to 3 µM and the Emax was more than 60%.
The like results for `Cc1cccc(C)c1-c1cc2nc(n1)NS(=O)(=O)c1cccc(c1)C(=O)N(Cc1cnc3cc(C4(C(F)(F)F)CC4)n(C)c3n1)[C@H](COC(C)C)CO2` [IV-74] were, in that order, 1 to 3 µM and more than 60%.
In the same order, the values of `Cc1cccc(C)c1-c1cc2nc(n1)NS(=O)(=O)c1cccc(c1)C(=O)N(Cc1cnc3oc(C(C)(C)C)cc3n1)[C@H](CC13CC(C)(C1)C3)CO2` [IV-53, (11R)-12-[(6-tert-butylfuro[2,3-b]pyrazin-2-yl)methyl]-6-(2,6-dimethylphenyl)-11-[(3-methyl-1-bicyclo[1.1.1]pentanyl)methyl]-2,2-dioxo-9-oxa-2λ^6-thia-3,5,12,19-tetrazatricyclo[12.3.1.14,8]nonadeca-1(18),4(19),5,7,14,16-hexaen-13-one] are 1 to 3 µM and more than 60%.
As to `Cc1cccc(CCC(C)C)c1-c1nc2nc(c1C)OC[C@@H](CC(C)(C)C)N(Cc1cnc3cc(C(C)C)n(C)c3n1)C(=O)c1cccc(c1)S(=O)(=O)N2` (single isomer, unassigned) [Compound I-202], the EC50 was less than 1 µM. Besides, under “18-24 hours”, the Emax is more than 60%.
Regarding `Cc1cccc(C)c1-c1cc2nc(n1)NS(=O)(=O)c1cccc(c1)C(=O)N(Cc1cnc3cc(C(C)(C)C(F)(F)F)n(C)c3n1)[C@H](COC(C)C)CO2` [IV-99], the EC50 is 1 to 3 µM and the Emax is more than 60%.
Turning to `Cc1cccc(C)c1-c1cc2nc(n1)NS(=O)(=O)c1cccc(c1)C(=O)N(Cc1ccn3cc(C(C)C)nc3n1)[C@H](CC13CC(C1)C3)CO2` [IV-63, (11R)-11-(1-Bicyclo[1.1.1]pentanylmethyl)-6-(2,6-dimethylphenyl)-12-[(2-isopropyl-imidazo[1,2-a]pyrimidin-7-yl)methyl]-2,2-dioxo-9-oxa-2λ^6-thia-3,5,12,19-tetrazatricyclo[12.3.1.14,8]nonadeca-1(18),4(19),5,7,14,16-hexaen-13-one], the EC50 is less than 1 µM and the Emax is more than 60%.
For the molecule `CCc1cccc(CC)c1-c1nc2nc(c1C)OC[C@@H](CC(C)(C)C)N(Cc1cnc3cc(C4(C)CC4)n(C)c3n1)C(=O)c1cccc(c1)S(=O)(=O)N2` [IV-90], the EC50 was in the range of 1 to 3 µM and the Emax was more than 60%.
The like results for `CCc1cccc(CC)c1-c1cc2nc(n1)NS(=O)(=O)c1cccc(c1)C(=O)N(Cc1cnc3oc(C(C)(C)C)cc3n1)[C@H](CC(C)(C)C)CO2` [IV-67] were, in that order, 3 to 30 µM and more than 60%.
As for `Cc1cccc(CC(C)C)c1-c1nc2nc(c1C)OC[C@@H](CC1(C)CC1)N(Cc1cnc3cc(C4(C(F)(F)F)CC4)n(C)c3n1)C(=O)c1cccc(c1)S(=O)(=O)N2` (atropisomer, axis not shown) [IV-77], the EC50 is 1 to 3 µM and the Emax is more than 60%.
Turning to `Cc1cccc(CC(C)C)c1-c1nc2nc(c1C)OC[C@@H](COC(C)C)N(Cc1cnc3cc(C4(C(F)(F)F)CC4)n(C)c3n1)C(=O)c1cccc(c1)S(=O)(=O)N2` (atropisomer, axis not shown; (P)) [IV-76, (5P,11R)-7-methyl-6-[2-methyl-6-(2-methylpropyl)phenyl]-12-({5-methyl-6-[1-(trifluoromethyl)cyclopropyl]-5H-pyrrolo[2,3-b]pyrazin-3-yl}methyl)-11-[(propan-2-yloxy)methyl]-9-oxa-2λ^6-thia-3,5,12,19-tetraazatricyclo[12.3.1.1∧{4,8}]nonadeca-1(18),4(19),5,7,14,16-hexaene-2,2,13-trione], the EC50 is less than 1 µM and the Emax is more than 60%.
As for `Cc1cccc(C)c1-c1cc2nc(n1)NS(=O)(=O)c1cccc(c1)C(=O)N(Cc1cnc3oc(C4CC5(CC5)C4)cc3n1)[C@H](CC1(C)CC1)CO2` [IV-65], the half-maximal effective concentration (EC50) fell in the range of 1 to 3 µM and the Emax was more than 60%.
On to `Cc1cccc(C)c1-c1cc2nc(n1)NS(=O)(=O)c1cccc(c1)C(=O)N(Cc1cnc3oc(C4(C)CC4)cc3n1)[C@H](C[C@H]1CCCCO1)CO2` [IV-88], for which the EC50 was in the range of 3 to 30 µM and the Emax was more than 60%.
Take `CCc1cccc(CC)c1-c1nc2nc(c1C)OC[C@@H](CC(C)(C)C)N(Cc1cnc3cc(C(C)(C)C)n(C)c3n1)C(=O)c1cccc(c1)S(=O)(=O)N2` [IV-91]: the EC50 is less than 1 µM and the Emax was more than 60%.
Turning to `Cc1cccc(CC(C)C)c1-c1nc2nc(c1C)OC[C@@H](COC(C)C)N(Cc1cnc3oc(C(C)(C)C)cc3n1)C(=O)c1cccc(c1)S(=O)(=O)N2` (atropisomer, axis not shown) [IV-43], the EC50 was in the range of 1 to 3 µM and the Emax is more than 60%.
In the same order, the values of `Cc1cccc(CC(C)C)c1-c1nc2nc(c1C)OC[C@@H](C(C)C)N(Cc1cnc3cc(C(C)(C)C)n(C)c3n1)C(=O)c1cccc(c1)S(=O)(=O)N2` (atropisomer, axis not shown) [IV-79] are less than 1 µM and more than 60%.
Take `CCc1cccc(CC)c1-c1cc2nc(n1)NS(=O)(=O)c1cccc(c1)C(=O)N(Cc1cnc3cc(C4(C)CC4)n(C)c3n1)[C@H](CC(C)(C)C)CO2` [IV-71]: the concentration giving a half-maximal response (EC50) fell in the range of 1 to 3 µM and the Emax was more than 60%.
With `Cc1cccc(C)c1-c1cc2nc(n1)NS(=O)(=O)c1cccc(c1)C(=O)N(Cc1cnc3oc(C4(C)CC4)cc3n1)[C@H](C[C@@H]1CCCO1)CO2` [IV-84], the EC50 fell in the range of 1 to 3 µM and the Emax is more than 60%.
For the molecule `Cc1cccc(OC(C)C)c1-c1nc2nc(c1C)OC[C@@H](CC(C)(C)C)N(Cc1cnc3oc(C(C)(C)C)cc3n1)C(=O)c1cccc(c1)S(=O)(=O)N2` (atropisomer, axis not shown) [Compound I-249], the EC50 lay in the range of 1 to 3 µM. The Emax (18-24 hours) is more than 60%.
